Measured values taken from ChEMBL document CHEMBL3751706, “Synthesis, biological studies and molecular dynamics of new anticancer RGD-based peptide conjugates for targeted drug delivery” (Bioorg Med Chem, 2016).
Activity calls are given as the source filed them. The rule behind the calls is not given here.

What was measured:
B16-F10 [1] = assay: Cytotoxicity against mouse B16F10 cells overexpressing alphavbeta3 integrin at 50 to 100 uM after 24 hrs by XTT assay; assay type: functional, cell-based
[2] = Chemical stability of the compound at pH 5.2 assessed as half life by LC-MS analysis; assay type: physicochemical; conditions: buffer
NCI-H1299 [3] = assay: Cytotoxicity against human H1299 cells overexpressing alphavbeta3 integrin at >50 uM after 24 hrs by XTT assay; assay type: functional, cell-based
[4] = Chemical stability of the compound at pH 7.4 assessed as half life by LC-MS analysis; assay type: physicochemical; conditions: buffer
Liver [5] = assay: Drug metabolism in mouse liver homogenates assessed as time duration for drug release at 37 degC by LC-MS analysis; assay type: ADME, tissue-based; conditions: tissue homogenate
[6] = Half life in mouse liver homogenates by LC-MS analysis; assay type: ADME, tissue-based; conditions: liver homogenate
Liver [7] = assay: Drug metabolism in mouse liver homogenates assessed as half life for drug release at 37 degC by LC-MS analysis; assay type: ADME, tissue-based; conditions: tissue homogenate
HEK293 [8] = assay: Cytotoxicity against HEK293 […] cells non-expressing alphavbeta3 integrin up to 50 uM after 24 hrs by XTT assay; assay type: cell-based; conditions: human, hek293, 24 h
NCI-H1299 [9] = assay: Cytotoxicity against human H1299 cells overexpressing alphavbeta3 integrin at up to 50 uM after 24 hrs by XTT assay; assay type: functional, cell-based
B16-F10 [10] = assay: Cytotoxicity against mouse B16F10 cells overexpressing alphavbeta3 integrin up to 50 uM after 24 hrs by XTT assay; assay type: functional, cell-based
HEK293 [11] = assay: Cytotoxicity against HEK293 […] cells non-expressing alphavbeta3 integrin after 24 hrs by XTT assay; assay type: cell-based; conditions: human, hek293, 24 h

With N=C(N)NCCC[C@@H]1NC(=O)[C@H](CCCCNC(=O)CCCc2ccc(N(CCCl)CCCl)cc2)NC(=O)[C@@H](Cc2ccccc2)NC(=O)[C@H](CC(=O)O)NC(=O)CNC1=O as the compound, how does the Activity (B16-F10 [1]) read?
The Activity was “Active”.

What about the half-life [2] of the same compound?
Its half-life is less than 12 h.

What about the Activity (NCI-H1299 [3]) of the same compound?
The Activity was “Active”.

And the half-life [4]?
Its half-life is less than 12 h.

And the Drug metabolism (Liver [5])?
The Drug metabolism was “metabolite_notdetected”.

Which half-life [6] does the source give for O=C(O)CCCc1ccc(N(CCCl)CCCl)cc1 [CHLORAMBUCIL] here?
Its half-life is 1 h.

What about the half-life [2] of the same compound?
The half-life was 3.33 h.

What about the half-life [4] of the same compound?
The half-life was 3.33 h.

For CC[C@@]1(OC(=O)NCCCC[C@@H]2NC(=O)[C@@H](Cc3ccccc3)NC(=O)[C@H](CC(=O)O)NC(=O)CNC(=O)[C@H](CCCNC(=N)N)NC2=O)C(=O)OCc2c1cc1n(c2=O)Cc2cc3ccccc3nc2-1, which t1/2 (Liver [7]) is on record?
Its t1/2 is 5 min.

And the half-life [2]?
The half-life was greater than 96 h.

What about the half-life [4] of the same compound?
The half-life was greater than 96 h.

And the Time (Liver [5])?
Its Time is 10 min.

With CC[C@@]1(O)C(=O)OCc2c1cc1n(c2=O)Cc2cc3ccccc3nc2-1 [CAMPTOTHECIN] as the compound, how does the Activity (HEK293 [8]) read?
Its Activity is “Toxic”.

And the half-life [6]?
The half-life was 1.75 h.

What about the Activity (NCI-H1299 [9]) of the same compound?
Its Activity is “Active”.

What about the half-life [2] of the same compound?
Its half-life is less than 96 h.

What about the Activity (B16-F10 [10]) of the same compound?
Its Activity is “Active”.

And the half-life [4]?
Its half-life is less than 96 h.

Which results are given for N=C(N)NCCC[C@@H]1NC(=O)[C@H](COC(=O)CCCc2ccc(N(CCCl)CCCl)cc2)NC(=O)[C@@H](Cc2ccccc2)NC(=O)[C@H](CC(=O)O)NC(=O)CNC1=O?
t1/2 (Liver [7]): 5 min; Activity (B16-F10 [1]): Active; half-life [2]: < 12 h; Activity (NCI-H1299 [3]): Active; half-life [4]: < 12 h; Activity (HEK293 [11]): Toxic; Time (Liver [5]): 45 min
